Data on seven molecules can be found in patent US20260092061A1, “COMPOUNDS FOR TARGETED PROTEIN DEGRADATION” (Amphista Therapeutics Limited, priority 2022, published 2026).

The target in assay [1] is T1, BRD9 (Homo sapiens, UniProt Q9H8M2).
T1 sequence (Q9H8M2 1-597): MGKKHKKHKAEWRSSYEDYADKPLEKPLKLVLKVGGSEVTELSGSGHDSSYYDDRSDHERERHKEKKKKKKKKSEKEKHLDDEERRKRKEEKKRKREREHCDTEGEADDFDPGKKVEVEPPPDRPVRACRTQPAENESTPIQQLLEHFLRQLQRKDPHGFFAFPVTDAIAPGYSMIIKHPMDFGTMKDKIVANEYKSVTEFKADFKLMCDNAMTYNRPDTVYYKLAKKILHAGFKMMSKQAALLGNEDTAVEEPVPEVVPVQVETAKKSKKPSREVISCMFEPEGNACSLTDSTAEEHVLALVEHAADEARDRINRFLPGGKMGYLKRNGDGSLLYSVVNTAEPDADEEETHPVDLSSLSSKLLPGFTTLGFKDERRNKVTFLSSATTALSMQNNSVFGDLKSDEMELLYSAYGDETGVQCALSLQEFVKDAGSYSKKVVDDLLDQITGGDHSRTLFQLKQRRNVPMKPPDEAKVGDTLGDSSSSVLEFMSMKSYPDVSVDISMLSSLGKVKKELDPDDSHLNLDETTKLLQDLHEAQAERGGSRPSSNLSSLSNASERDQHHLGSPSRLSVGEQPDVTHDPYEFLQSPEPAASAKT
In words: Degradation of BRD9 (IF), immunofluorescence in MV4-11 cells, 24 hours (Assay Protocol 2). It counts as cell-based. Further details: A suspension of MV4-11 cells (ATCC CRL-9591) was prepared; host or cells: MV4-11. The following applies: BRD9 degradation. Put shortly: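 MV4-11 cells treated with compound 24 h at 37° C., then fixed, permeabilised and immunostained for BRD9 (anti-BRD9 E4Q3F, Alexa 647 secondary, Hoechst counterstain). High-content imaging quantified nuclear BRD9 signal; % BRD9 remaining normalised to DMSO and 100 nM CFT-8634 controls.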

The target of assay [2] is T1, BRD9. In words: BRD9 degradation, HiBiT-BRD9 KI HEK293 (LgBiT) cells, NanoGlo Lytic Endpoint assay (Assay Protocol 1). Format: cell-based. As to conditions: BRD9 degradation; for Dmax: HEK293, read-out: Dmax. Summed up:
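HiBiT-tagged BRD9 knock-in HEK293 (LgBiT) cells exposed to compounds for 6 h at 37 °C, 5% CO2. Residual BRD9 measured by HiBiT lytic luminescence. % BRD9 remaining normalised to DMSO-treated cells (high) and no-cell wells (low).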
A general note: With HiBiT, luminescence reflects the tagged protein that the partner subunit can reach.

The mark [3] stands for this setting: Assay protocol 2, read-out: DC50.
Where [4] appears, read: MV4-11, Assay protocol 2, read-out: Dmax.
The mark [5] stands for this setting: Assay protocol 1, read-out: DC50.

Where only a bound is given, the exact number is not on record here.

For the molecule `COc1cc(-c2cn(C)c(=O)c(C)c2C)cc(OC)c1CN1CCN(Cc2cccc3c2CCN(C(=O)/C(C#N)=C/c2ncccc2C(F)(F)F)C3C)CC1` (mixture of isomers) [Compound B49, (E/Z)-2-(5-((4-(2,6-dimethoxy-4-(1,4,5-trimethyl-6-oxo-1,6-dihydropyridin-3-yl)benzyl)piperazin-1-yl)methyl)-1-methyl-1,2,3,4-tetrahydroisoquinoline-2-carbonyl)-3-(3-(trifluoromethyl)pyridin-2-yl)acrylonitrile], the values for the 50% degradation concentration (DC50) on BRD9 [1] (setting [3]) and on BRD9 [2] (setting [5]) were 0.01 to 0.025 µM and less than 0.00125 µM, respectively. Besides, the Dmax at BRD9 [1] (setting [4]) and at BRD9 [2] (Assay protocol 1) was 40 to 70% each time.
For `COc1cc(-c2cn(C)c(=O)c(C)c2C)cc(OC)c1CN1CC2CC1CN2C(=O)/C(C#N)=C/c1cccc(Br)n1` (mixture of isomers) [BRD9j, (E/Z)-3-(6-bromopyridin-2-yl)-2-(5-(2,6-dimethoxy-4-(1,4,5-trimethyl-6-oxo-1,6-dihydropyridin-3-yl)benzyl)-2,5-diazabicyclo[2.2.1]heptane-2-carbonyl)acrylonitrile], the maximal degradation (Dmax) (in general, the largest share of the target that was removed) at BRD9 [1] (MV4-11, Table 4, determined according to Assay Protocol 2, read-out: Dmax^2) was more than 70%. The half-maximal degradation concentration (DC50) (commonly the concentration giving 50% degradation) at BRD9 [1] (Table 4, determined according to Assay Protocol 2, read-out: DC50^2) is less than 0.025 µM; on BRD9 [2] (Table 4, determined according to Assay Protocol 1, read-out: DC50^1), less than 0.025 µM.
With `COc1cc(-c2cn(C)c(=O)c(C)c2C)cc(OC)c1CN(C)Cc1cccc2c1CCN(C(=O)/C(C#N)=C/c1cccc(C(F)(F)F)n1)C2C` (mixture of isomers) [Compound B15, (E/Z)-2-(5-(((2,6-dimethoxy-4-(1,4,5-trimethyl-6-oxo-1,6-dihydropyridin-3-yl)benzyl)(methyl)amino)methyl)-1-methyl-1,2,3,4-tetrahydroisoquinoline-2-carbonyl)-3-(6-(trifluoromethyl)pyridin-2-yl)acrylonitrile], the results for the half-maximal degradation concentration (DC50) at BRD9 [1] (setting [3]) and on BRD9 [2] (setting [5]) were less than 0.00125 µM and 0.00125 to 0.01 µM, respectively. In addition, the greatest degradation seen (Dmax) on BRD9 [1] (setting [4]) and at BRD9 [2] (Assay protocol 1) was more than 75% in each case.
`COc1cc(-c2cn(C)c(=O)c(C)c2C)cc(OC)c1CN1CCN(Cc2cccc3c2CCN(C(=O)/C(C#N)=C/C(C)(C)C)C3(C)C)C2(CC2)C1` [Compound C9, (E/Z)-2-(5-((7-(2,6-dimethoxy-4-(1,4,5-trimethyl-6-oxo-1,6-dihydropyridin-3-yl)benzyl)-4,7-diazaspiro[2.5]octan-4-yl)methyl)-1,1-dimethyl-1,2,3,4-tetrahydroisoquinoline-2-carbonyl)-4,4-dimethylpent-2-enenitrile]: the DC50 on BRD9 [1] (setting [3]) and on BRD9 [2] (setting [5]) was 0.025 to 1 µM each time. Moreover, the maximal degradation (Dmax) fell in the range of 40 to 70% at BRD9 [1] (setting [4]) and 70 to 75% at BRD9 [2] (Assay protocol 1).
For `COc1cc(-c2cn(C)c(=O)c(C)c2C)cc(OC)c1CN1CCN(c2ccc(C3CCCN3C(=O)/C(C#N)=C/C(C)(C)C)cc2)CC1` (mixture of isomers) [Compound B42, (E/Z)-2-(2-(4-(4-(2,6-dimethoxy-4-(1,4,5-trimethyl-6-oxo-1,6-dihydropyridin-3-yl)benzyl)piperazin-1-yl)phenyl)pyrrolidine-1-carbonyl)-4,4-dimethylpent-2-enenitrile], the maximal degradation (Dmax) on BRD9 [1] (setting [4]) and at BRD9 [2] (Assay protocol 1) was 40 to 70% in each case. The DC50 at BRD9 [2] (setting [5]) was 0.01 to 0.025 µM.
As for `COc1cc(-c2cn(C)c(=O)c(C)c2C)cc(OC)c1CN1CCN(Cc2cccc3c2CCN(C(=O)/C(C#N)=C/C2CC(F)(F)C2)C3C)CC1` (mixture of isomers) [Compound B1, (E/Z)-3-(3,3-difluorocyclobutyl)-2-(5-((4-(2,6-dimethoxy-4-(1,4,5-trimethyl-6-oxo-1,6-dihydropyridin-3-yl)benzyl)piperazin-1-yl)methyl)-1-methyl-1,2,3,4-tetrahydroisoquinoline-2-carbonyl)acrylonitrile], the DC50 at BRD9 [1] (setting [3]) was less than 0.00125 µM. Besides, the greatest degradation seen (Dmax) on BRD9 [1] (setting [4]) and on BRD9 [2] (Assay protocol 1) was 40 to 70% throughout.
For the molecule `COc1cc(-c2cn(C)c(=O)c(C)c2C)cc(OC)c1CN1CCN(Cc2cccc(C3CCCN3C(=O)/C(C#N)=C/c3nc(C(F)(F)F)cs3)c2)CC1` (stereo not shown) [Compound B56], the DC50 at BRD9 [1] (setting [3]) and at BRD9 [2] (setting [5]) was less than 0.00125 µM each time. Further, the Dmax on BRD9 [1] (setting [4]) and at BRD9 [2] (Assay protocol 1) was more than 75% each time.
